Experimental data from ChEMBL document CHEMBL3045723, “Synthesis of novel 3-(5-sulfanyl-1,3,4-oxadiazol-2-yl)-2H-chromen-2-one condensed s-triazinyl piperazines and piperidines as antimicrobial agents” (2012).
≈ marks a conversion by molar mass, not a printed value.

How the values were obtained:
Format in all cases: functional
[1] = system: Bacillus cereus; test: Antibacterial activity against Bacillus cereus MTCC 619 after 24 hr; settings: MTCC 619, 24 h
[2] = system: Staphylococcus aureus; test: Antibacterial activity against Staphylococcus aureus MTCC 96 after 24 hr by agar disk diffusion test
[3] = system: Staphylococcus aureus; test: Antibacterial activity against Staphylococcus aureus MTCC 96 after 24 hr; settings: MTCC 96, 24 h
[4] = system: Bacillus cereus; test: Antibacterial activity against Bacillus cereus MTCC 619 after 24 hr by agar disk diffusion test
[5] = system: Aspergillus niger; test: Antifungal activity against Aspergillus niger MTCC 282 after 48 hr; settings: MTCC 282, 48 h
[6] = system: Klebsiella pneumoniae; test: Antibacterial activity against Klebsiella pneumoniae MTCC 109 after 24 hr; settings: MTCC 109, 24 h
[7] = system: Escherichia coli; test: Antibacterial activity against Escherichia coli MTCC 739 after 24 hr by agar disk diffusion test
[8] = system: Salmonella typhi; test: Antibacterial activity against Salmonella enterica subsp. enterica serovar Typhi MTCC 733 after 24 hr by agar disk diffusion test
[9] = system: Pseudomonas aeruginosa; test: Antibacterial activity against Pseudomonas aeruginosa MTCC 741 after 24 hr by agar disk diffusion test
[10] = system: Klebsiella pneumoniae; test: Antibacterial activity against Klebsiella pneumoniae MTCC 109 after 24 hr by agar disk diffusion test
[11] = system: Shigella flexneri; test: Antibacterial activity against Shigella flexneri after 24 hr
[12] = system: Pseudomonas aeruginosa; test: Antibacterial activity against Pseudomonas aeruginosa MTCC 741
[13] = system: Proteus vulgaris; test: Antibacterial activity against Proteus vulgaris MTCC 1771 after 24 hr; settings: MTCC 1771, 24 h
[14] = system: Candida albicans; test: Antifungal activity against Candida albicans MTCC 183 after 48 hr; settings: MTCC 183, 48 h
[15] = system: Proteus vulgaris; test: Antibacterial activity against Proteus vulgaris MTCC 1771 after 24 hr by agar disk diffusion test
[16] = system: Candida albicans; test: Antifungal activity against Candida albicans MTCC 183 after 24 hr by agar disk diffusion test
[17] = system: Salmonella typhi; test: Antibacterial activity against Salmonella enterica subsp. enterica serovar Typhi MTCC 733 after 24 hr; settings: MTCC 733, 24 h
[18] = system: Aspergillus niger; test: Antifungal activity against Aspergillus niger MTCC 282 after 24 hr by agar disk diffusion test
[19] = system: Shigella flexneri; test: Antibacterial activity against Shigella flexneri after 24 hr by agar disk diffusion test
[20] = system: Escherichia coli; test: Antibacterial activity against Escherichia coli MTCC 739 after 24 hr; settings: MTCC 739, 24 h

Structure (SMILES)	MIC [1] [µg/mL]	inhibition zone (IZ) [2] [mm]	MIC [3] [µg/mL]	inhibition zone (IZ) [4] [mm]	MIC [5] [µg/mL]	MIC [6] [µg/mL]	inhibition zone (IZ) [7] [mm]	inhibition zone (IZ) [8] [mm]	inhibition zone (IZ) [9] [mm]	inhibition zone (IZ) [10] [mm]	MIC [11] [µg/mL]	MIC [12] [µg/mL]	MIC [13] [µg/mL]	MIC [14] [µg/mL]	inhibition zone (IZ) [15] [mm]	inhibition zone (IZ) [16] [mm]	MIC [17] [µg/mL]	inhibition zone (IZ) [18] [mm]	inhibition zone (IZ) [19] [mm]	MIC [20] [µg/mL]
O=c1oc2ccccc2cc1-c1nnc(Sc2nc(Oc3cccc4cccnc34)nc(N3CCC(Cc4ccccc4)CC3)n2)o1	100 (≈ 156 µM)	16	100 (≈ 156 µM)	13	100 (≈ 156 µM)	100 (≈ 156 µM)	12	14	<10	<10	100 (≈ 156 µM)	100 (≈ 156 µM)	100 (≈ 156 µM)	100 (≈ 156 µM)	<10	13	100 (≈ 156 µM)	<10	11	100 (≈ 156 µM)
CC1CC(C)CN(c2nc(Oc3cccc4cccnc34)nc(Sc3nnc(-c4cc5ccccc5oc4=O)o3)n2)C1 (stereo not given)	50 (≈ 86.3 µM)	22	25 (≈ 43.1 µM)	21	25 (≈ 43.1 µM)	100 (≈ 173 µM)	20	23	22	16	25 (≈ 43.1 µM)	12.5 (≈ 21.6 µM)	100 (≈ 173 µM)	100 (≈ 173 µM)	19	16	12.5 (≈ 21.6 µM)	23	24	50 (≈ 86.3 µM)
O=c1oc2ccccc2cc1-c1nnc(Sc2nc(Oc3cccc4cccnc34)nc(N3CCN(C(c4ccccc4)c4ccccc4)CC3)n2)o1	100 (≈ 139 µM)	18	100 (≈ 139 µM)	14	100 (≈ 139 µM)	100 (≈ 139 µM)	13	12	<10	14	100 (≈ 139 µM)	100 (≈ 139 µM)	100 (≈ 139 µM)	100 (≈ 139 µM)	<10	<10	100 (≈ 139 µM)	11	14	100 (≈ 139 µM)
O=c1oc2ccccc2cc1-c1nnc(Sc2nc(Oc3cccc4cccnc34)nc(N3CCN(C(c4ccccc4)c4ccc(Cl)cc4)CC3)n2)o1 (stereo not given)	50 (≈ 66.4 µM)	20	50 (≈ 66.4 µM)	21	50 (≈ 66.4 µM)	100 (≈ 133 µM)	25	19	16	19	100 (≈ 133 µM)	100 (≈ 133 µM)	100 (≈ 133 µM)	50 (≈ 66.4 µM)	20	22	100 (≈ 133 µM)	22	16	25 (≈ 33.2 µM)
O=c1oc2ccccc2cc1-c1nnc(Sc2nc(Oc3cccc4cccnc34)nc(N3CCN(c4ccccc4F)CC3)n2)o1	50 (≈ 77.3 µM)	19	100 (≈ 155 µM)	20	100 (≈ 155 µM)	50 (≈ 77.3 µM)	23	20	19	20	100 (≈ 155 µM)	100 (≈ 155 µM)	25 (≈ 38.7 µM)	100 (≈ 155 µM)	22	19	50 (≈ 77.3 µM)	21	19	25 (≈ 38.7 µM)
O=c1oc2ccccc2cc1-c1nnc(Sc2nc(Oc3cccc4cccnc34)nc(N3CCN(c4ccc(F)cc4)CC3)n2)o1	50 (≈ 77.3 µM)	22	25 (≈ 38.7 µM)	21	100 (≈ 155 µM)	100 (≈ 155 µM)	23	19	21	16	100 (≈ 155 µM)	50 (≈ 77.3 µM)	50 (≈ 77.3 µM)	50 (≈ 77.3 µM)	21	22	100 (≈ 155 µM)	21	17	25 (≈ 38.7 µM)
O=c1oc2ccccc2cc1-c1nnc(Sc2nc(Oc3cccc4cccnc34)nc(N3CCN(c4cccc(C(F)(F)F)c4)CC3)n2)o1	12.5 (≈ 17.9 µM)	24	12.5 (≈ 17.9 µM)	24	25 (≈ 35.9 µM)	25 (≈ 35.9 µM)	22	21	21	21	100 (≈ 144 µM)	25 (≈ 35.9 µM)	25 (≈ 35.9 µM)	50 (≈ 71.8 µM)	23	21	50 (≈ 71.8 µM)	24	21	50 (≈ 71.8 µM)
COc1ccc(CN2CCN(c3nc(Oc4cccc5cccnc45)nc(Sc4nnc(-c5cc6ccccc6oc5=O)o4)n3)CC2)c(OC)c1OC	12.5 (≈ 17.1 µM)	23	12.5 (≈ 17.1 µM)	23	25 (≈ 34.1 µM)	100 (≈ 136 µM)	19	24	22	18	25 (≈ 34.1 µM)	12.5 (≈ 17.1 µM)	100 (≈ 136 µM)	50 (≈ 68.2 µM)	20	22	12.5 (≈ 17.1 µM)	24	23	100 (≈ 136 µM)
COc1ccc(N2CCN(c3nc(Oc4cccc5cccnc45)nc(Sc4nnc(-c5cc6ccccc6oc5=O)o4)n3)CC2)cc1	12.5 (≈ 19 µM)	22	25 (≈ 38 µM)	23	25 (≈ 38 µM)	100 (≈ 152 µM)	17	24	23	19	50 (≈ 75.9 µM)	12.5 (≈ 19 µM)	100 (≈ 152 µM)	50 (≈ 75.9 µM)	18	22	12.5 (≈ 19 µM)	24	22	100 (≈ 152 µM)
